Key:
[1] = system: Jurkat; experiment: confluency relative to DMSO, 18 h (ratio); higher = more viable
Procedure, shortened: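 Cells (Jurkat, or primary CD4+/CD8+ T cells either naive or stimulated 48 h with CD3/CD28 Dynabeads) were incubated with compound for 18 h at 37 °C, 5% CO2, across 1 nM–10 µM in log10 steps. Each 100 µl suspension was then placed in a 96-well plate with IncuCyte Cytotox Dye and alamarBlue and imaged by phase contrast at ×10, five images per well, hourly over 3 h. Confluency values come from the Basic Analyzer and are relative to the mean of the control wells.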

[2] = system: Jurkat; experiment: metabolic activity relative to DMSO, 18 h (ratio); higher = more viable
Procedure, shortened: (§1)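 Compound was added at 1 nM–10 µM (log10 steps) for 18 h at 37 °C, 5% CO2 to Jurkat cells or to primary CD4+/CD8+ T cells that were naive or had been activated 48 h with CD3/CD28 Dynabeads. After alamarBlue was added to 10% v/v final, fluorescence (excitation 544 nm, emission 584 nm) was measured 3.5 h later. Values for metabolic activity are normalised to the mean of vehicle controls.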

[3] = system: Jurkat; experiment: cytotoxicity relative to DMSO, 18 h (ratio); higher = less cell death (drugs called cytotoxic fall below 1)
Procedure, shortened: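 The assay used Jurkat cells or naive or CD3/CD28 Dynabead-activated (48 h) primary CD4+/CD8+ T cells, incubated with compound at 1 nM–10 µM in log10 steps for 18 h at 37 °C, 5% CO2. Cytotoxicity was assessed with IncuCyte Cytotox Dye and IncuCyte fluorescence imaging, corrected for confluency and scaled to mean control signals.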

[4] = system: Primary T cells CD4+ activated; experiment: metabolic activity relative to DMSO, 18 h (ratio); higher = more viable
Procedure, shortened: as §1

[5] = system: Primary T cells CD4+ naive; experiment: as above
Procedure, shortened: as §1

CC(C)Nc1cc(-c2c[nH]c(C(=O)NC(CO)c3cccc(Cl)c3)c2)c(Cl)cn1 (stereo not given) [Ulixertinib]
confluency ([1]; 1 nM): 1.02
confluency ([1]; 10 nM): 1.06
confluency ([1]; 100 nM): 0.999
confluency ([1]; 1000 nM): 1.11
confluency ([1]; 10000 nM): 0.826
metabolic activity ([2]; 1 nM): 1.05
metabolic activity ([2]; 10 nM): 1.02
metabolic activity ([2]; 100 nM): 0.828
metabolic activity ([2]; 1000 nM): 0.866
metabolic activity ([2]; 10000 nM): 0.878
cytotoxicity ([3]; 1 nM): 0.973
cytotoxicity ([3]; 10 nM): 1.01
cytotoxicity ([3]; 100 nM): 0.93
cytotoxicity ([3]; 1000 nM): 0.998
cytotoxicity ([3]; 10000 nM): 0.777

Cc1ncsc1-c1ccc(CNC(=O)C2CC(O)CN2C(=O)C(NC(=O)C2(C#N)CC2)C(C)(C)C)cc1 (stereo not given) [VH298]
confluency ([1]; 1 nM): 1.01
confluency ([1]; 10 nM): 0.995
confluency ([1]; 100 nM): 0.998
confluency ([1]; 1000 nM): 0.962
confluency ([1]; 10000 nM): 0.901
metabolic activity ([2]; 1 nM): 1.04
metabolic activity ([2]; 10 nM): 1.08
metabolic activity ([2]; 100 nM): 1.13
metabolic activity ([2]; 1000 nM): 1.14
metabolic activity ([2]; 10000 nM): 0.896
cytotoxicity ([3]; 1 nM): 1
cytotoxicity ([3]; 10 nM): 1.05
cytotoxicity ([3]; 100 nM): 1.12
cytotoxicity ([3]; 1000 nM): 1.13
cytotoxicity ([3]; 10000 nM): 0.942

Cc1ncsc1-c1ccc(CNC(=O)C2CC(O)CN2C(=O)C(N)C(C)(C)C)cc1 (stereo not given) [VHL ligand 1]
confluency ([1]; 1 nM): 1.01
confluency ([1]; 10 nM): 1.01
confluency ([1]; 100 nM): 1.03
confluency ([1]; 1000 nM): 1.02
confluency ([1]; 10000 nM): 1.02
metabolic activity ([2]; 1 nM): 1.06
metabolic activity ([2]; 10 nM): 1.01
metabolic activity ([2]; 100 nM): 1.06
metabolic activity ([2]; 1000 nM): 0.989
metabolic activity ([2]; 10000 nM): 1.05
cytotoxicity ([3]; 1 nM): 1.01
cytotoxicity ([3]; 10 nM): 0.955
cytotoxicity ([3]; 100 nM): 0.949
cytotoxicity ([3]; 1000 nM): 0.966
cytotoxicity ([3]; 10000 nM): 0.948

CC1(c2nc3c(C(N)=O)cccc3[nH]2)CCCN1 (stereo not given) [Veliparib]
confluency ([1]; 1 nM): 1.07
confluency ([1]; 10 nM): 1.04
confluency ([1]; 100 nM): 1.02
confluency ([1]; 1000 nM): 1.03
confluency ([1]; 10000 nM): 0.966
metabolic activity ([2]; 1 nM): 0.894
metabolic activity ([2]; 10 nM): 0.816
metabolic activity ([2]; 100 nM): 0.851
metabolic activity ([2]; 1000 nM): 0.948
metabolic activity ([2]; 10000 nM): 0.8
cytotoxicity ([3]; 1 nM): 1.03
cytotoxicity ([3]; 10 nM): 0.975
cytotoxicity ([3]; 100 nM): 0.969
cytotoxicity ([3]; 1000 nM): 1.08
cytotoxicity ([3]; 10000 nM): 0.9

CCC1(O)CC2CN(CCc3c([nH]c4ccccc34)C(C(=O)OC)(c3cc4c(cc3OC)N(C=O)C3C(O)(C(=O)OC)C(OC(C)=O)C5(CC)C=CCN6CCC43C65)C2)C1 (stereo not given) [Vincristine]
confluency ([1]; 1 nM): 0.98
confluency ([1]; 10 nM): 0.875
confluency ([1]; 100 nM): 0.82
confluency ([1]; 1000 nM): 0.781
confluency ([1]; 10000 nM): 0.762
metabolic activity ([2]; 1 nM): 0.536
metabolic activity ([2]; 10 nM): 0.402
metabolic activity ([2]; 100 nM): 0.366
metabolic activity ([2]; 1000 nM): 0.394
metabolic activity ([2]; 10000 nM): 0.412
cytotoxicity ([3]; 1 nM): 0.824
cytotoxicity ([3]; 10 nM): 0.698
cytotoxicity ([3]; 100 nM): 0.662
cytotoxicity ([3]; 1000 nM): 0.611
cytotoxicity ([3]; 10000 nM): 0.585

O=C(CCCCCCC(=O)Nc1ccccc1)NO [Vorinostat]
confluency ([1]; 1 nM): 1.03
confluency ([1]; 10 nM): 1
confluency ([1]; 100 nM): 1.14
confluency ([1]; 1000 nM): 1.11
confluency ([1]; 10000 nM): 1.36
metabolic activity ([2]; 1 nM): 0.947
metabolic activity ([2]; 10 nM): 0.907
metabolic activity ([2]; 100 nM): 0.815
metabolic activity ([2]; 1000 nM): 0.809
metabolic activity ([2]; 10000 nM): 0.764
metabolic activity ([4]; 1 nM): 0.849
metabolic activity ([4]; 10 nM): 0.979
metabolic activity ([4]; 100 nM): 0.964
metabolic activity ([4]; 1000 nM): 0.945
metabolic activity ([4]; 10000 nM): 0.788
metabolic activity ([5]; 1 nM): 0.859
metabolic activity ([5]; 10 nM): 0.862
metabolic activity ([5]; 100 nM): 0.902
metabolic activity ([5]; 1000 nM): 1.02
metabolic activity ([5]; 10000 nM): 0.913

CCn1c(=O)c(-c2ccn[nH]2)cc2c(C)nc(N)nc21 [Voxtalisib]
confluency ([1]; 1 nM): 1
confluency ([1]; 10 nM): 1.01
confluency ([1]; 100 nM): 1.02
confluency ([1]; 1000 nM): 1.02
confluency ([1]; 10000 nM): 1.04
metabolic activity ([2]; 1 nM): 1.05
metabolic activity ([2]; 10 nM): 1.02
metabolic activity ([2]; 100 nM): 0.993
metabolic activity ([2]; 1000 nM): 0.924
metabolic activity ([2]; 10000 nM): 1
cytotoxicity ([3]; 1 nM): 0.985
cytotoxicity ([3]; 10 nM): 0.977
cytotoxicity ([3]; 100 nM): 0.966
cytotoxicity ([3]; 1000 nM): 0.943
cytotoxicity ([3]; 10000 nM): 1.02

CN1CC=CCCOc2cccc(c2)-c2ccnc(n2)Nc2cccc(c2)C1 [Zotiraciclib]
confluency ([1]; 1 nM): 0.992
confluency ([1]; 10 nM): 0.992
confluency ([1]; 100 nM): 0.923
confluency ([1]; 1000 nM): 0.908
confluency ([1]; 10000 nM): 0.882
metabolic activity ([2]; 1 nM): 1.03
metabolic activity ([2]; 10 nM): 0.912
metabolic activity ([2]; 100 nM): 0.094
metabolic activity ([2]; 1000 nM): 0.085
metabolic activity ([2]; 10000 nM): 0.05
cytotoxicity ([3]; 1 nM): 0.95
cytotoxicity ([3]; 10 nM): 0.924
cytotoxicity ([3]; 100 nM): 0.468
cytotoxicity ([3]; 1000 nM): 0.473
cytotoxicity ([3]; 10000 nM): 0.436
